The text below walks through data of PubChem BioAssay (NCI).

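These data come from cells grown in 96-well plates and exposed to compound for 48 hours at five concentrations. GI50: concentration for 50% inhibition of growth. Definition used: TGI = concentration required for complete inhibition of growth.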 Bounds are passed on as bounds.

Some test systems named below: HCT-116 colon; HS 578T breast; SF-295 CNS; K-562 leukemia; DU-145 prostate; SF-268 CNS; OVCAR-8 ovarian; OVCAR-3 ovarian; SNB-19 CNS; HOP-92 NSCLC.
Common to all, as to assay: growth of human tumour cells (NCI), 48 h

For the compound `Cc1ccccc1NC(=O)c1sc2nc3c(cc2c1N)C(=O)CCC3`, the GI50 with HCT-116 colon was 3.56 µM; in the assay with HS 578T breast, 1.71 µM; in the assay with SF-295 CNS, 1.33 µM; in the assay on K-562 leukemia it was 0.771 µM; with DU-145 prostate, 2.7 µM; with SF-268 CNS, 8.51 µM. In addition, the GI50 in the assay with OVCAR-8 ovarian was 4.89 µM; in the assay on OVCAR-3 ovarian, 1.76 µM; with SNB-19 CNS it was 3.1 µM; in the assay on HOP-92 NSCLC, > 100 µM. The TGI was > 100 µM in the assay with HCT-116 colon; 5.56 µM in the assay on HS 578T breast; > 100 µM in the assay with SF-295 CNS; > 100 µM in the assay on K-562 leukemia; 8.41 µM in the assay on DU-145 prostate; > 100 µM in the assay with SF-268 CNS. Also, the TGI in the assay on OVCAR-8 ovarian is > 100 µM; with OVCAR-3 ovarian it was 4.45 µM; in the assay with SNB-19 CNS, > 100 µM; in the assay on HOP-92 NSCLC it was > 100 µM.
As to `C=C1C(=O)O[C@H]2[C@H]1CC(=O)/C(C)=C\CC[C@@]1(C)O[C@@H]21`, the GI50 in the assay on HCT-116 colon was 1.26 µg/mL; in the assay on HS 578T breast, 4.43 µg/mL; in the assay with SF-295 CNS, 5.55 µg/mL; with K-562 leukemia, 0.842 µg/mL; in the assay on DU-145 prostate, 3.44 µg/mL; with SF-268 CNS, 4.15 µg/mL. Further, the GI50 is 3.98 µg/mL in the assay with OVCAR-8 ovarian, 0.795 µg/mL in the assay on OVCAR-3 ovarian, 7.62 µg/mL with SNB-19 CNS and 1.94 µg/mL with HOP-92 NSCLC. In addition, the TGI with HCT-116 colon worked out at 4.97 µg/mL; in the assay on HS 578T breast it was 9.16 µg/mL; with SF-295 CNS it was 12.4 µg/mL; in the assay with K-562 leukemia, 4.15 µg/mL; in the assay with DU-145 prostate, 7.11 µg/mL; in the assay with SF-268 CNS, 9.58 µg/mL. Moreover, the TGI was found to be 7.81 µg/mL with OVCAR-8 ovarian, 3.71 µg/mL with OVCAR-3 ovarian, 16.1 µg/mL in the assay with SNB-19 CNS and 4.32 µg/mL in the assay on HOP-92 NSCLC.
Consider `COC(=O)[C@H](Cc1ccccc1)NC(=O)[C@@H](OC)[C@@H]1Cc2cc3cc(OC4CC(OC5CC(O)C(O)C(C)O5)C(O)C(C)O4)c(C)c(O)c3c(O)c2C(=O)[C@H]1OC1CC(OC2CC(OC3CC(C)(O)C(O)C(C)O3)C(O)C(C)O2)C(O)C(C)O1` (stereo not given in full), for which the GI50 with HCT-116 colon is 0.00587 µM; in the assay with HS 578T breast, 0.0131 µM; in the assay on SF-295 CNS, 0.025 µM; with K-562 leukemia, 0.0312 µM; with DU-145 prostate it was 0.0286 µM; in the assay on SF-268 CNS, 0.0298 µM. Also, the GI50 in the assay with OVCAR-8 ovarian was 0.0108 µM; with OVCAR-3 ovarian, 0.0142 µM; in the assay on SNB-19 CNS, 0.0173 µM; in the assay on HOP-92 NSCLC it was 0.00451 µM. In addition, the TGI in the assay on HCT-116 colon was > 14.3 µM; in the assay with HS 578T breast, 0.348 µM; with SF-295 CNS it was 1.7 µM; in the assay on K-562 leukemia, > 14.3 µM; with DU-145 prostate it was > 14.3 µM; in the assay with SF-268 CNS it was 2.24 µM. Moreover, the TGI in the assay with OVCAR-8 ovarian was > 14.3 µM; in the assay on OVCAR-3 ovarian, 0.0793 µM; with SNB-19 CNS, > 14.3 µM; in the assay with HOP-92 NSCLC, 0.202 µM.
With `CCCCc1nc2cc(/C=C/C(=O)NO)ccc2n1CCN(CC)CC`, the GI50 in the assay on HCT-116 colon is 0.115 µM; in the assay with HS 578T breast, 0.515 µM; with SF-295 CNS, 0.26 µM; with K-562 leukemia, 0.282 µM; in the assay with DU-145 prostate, 0.302 µM; in the assay with SF-268 CNS it was 0.552 µM. Also, the GI50 is 0.104 µM in the assay with OVCAR-8 ovarian, 0.363 µM in the assay on OVCAR-3 ovarian, 0.593 µM with SNB-19 CNS and 0.0821 µM in the assay with HOP-92 NSCLC. Moreover, the TGI in the assay on HCT-116 colon is 0.571 µM; in the assay on HS 578T breast, 33 µM; with SF-295 CNS it was 1.23 µM; with K-562 leukemia it was > 100 µM; with DU-145 prostate, 4.64 µM; in the assay on SF-268 CNS, 7.55 µM. In addition, the TGI with OVCAR-8 ovarian amounted to 5.54 µM; with OVCAR-3 ovarian it was 1.83 µM; in the assay with SNB-19 CNS, 12.2 µM; with HOP-92 NSCLC, 0.456 µM.
For the compound `COc1ccc2sc3c(NCCCNCCO)nc4ccccc4c3c(=O)c2c1`, the GI50 in the assay with HCT-116 colon is 1.59 µM; in the assay on HS 578T breast it was 1.42 µM; in the assay with SF-295 CNS, 1.73 µM; in the assay with K-562 leukemia, 1.83 µM; in the assay on DU-145 prostate, 1.6 µM; in the assay with SF-268 CNS it was 1.52 µM. The GI50 was 1.65 µM with OVCAR-8 ovarian, 1.74 µM in the assay on OVCAR-3 ovarian, 1.65 µM with SNB-19 CNS and 1.35 µM in the assay with HOP-92 NSCLC. For the same compound, the TGI was 3.03 µM in the assay on HCT-116 colon; 3.48 µM in the assay on HS 578T breast; 3.15 µM with SF-295 CNS; 4.32 µM in the assay on K-562 leukemia; 2.98 µM in the assay on DU-145 prostate; 3.16 µM in the assay with SF-268 CNS. Besides, the TGI in the assay on OVCAR-8 ovarian came out at 3.45 µM; in the assay with OVCAR-3 ovarian, 3.21 µM; with SNB-19 CNS, 3.15 µM; with HOP-92 NSCLC, 6.74 µM.
Regarding `COC(=O)[C@]12CC[C@@H](C)[C@H](C)[C@@H]1C1=CC[C@@H]3[C@@]4(C)C=C(O)C(=O)C(C)=C4CC[C@@]3(C)[C@]1(C)CC2`, the GI50 in the assay on HCT-116 colon was 6.03 µM; in the assay with HS 578T breast, 22.2 µM; in the assay on SF-295 CNS, 15.8 µM; in the assay with K-562 leukemia, 14.3 µM; in the assay on DU-145 prostate, 15.2 µM; with SF-268 CNS it was 15.2 µM. The GI50 in the assay with OVCAR-8 ovarian was 16.9 µM; with OVCAR-3 ovarian, 11.6 µM; in the assay with SNB-19 CNS it was 18.7 µM; in the assay with HOP-92 NSCLC, 11.6 µM. In addition, the TGI with HCT-116 colon stood at 20.6 µM; in the assay with HS 578T breast it was 57.1 µM; in the assay with SF-295 CNS it was 37.9 µM; with K-562 leukemia it was 39.2 µM; with DU-145 prostate, 33.3 µM; with SF-268 CNS it was 35.1 µM. Also, the TGI in the assay on OVCAR-8 ovarian stood at 39.4 µM; in the assay with OVCAR-3 ovarian, 24.5 µM; in the assay on SNB-19 CNS, 40.9 µM; with HOP-92 NSCLC it was 26.2 µM.
As to `CN1CCN(c2cc(Nc3cc(C4CC4)[nH]n3)nc(Nc3ccc(CC(=O)NCc4cccc(F)c4)cc3)n2)CC1`, the GI50 in the assay on HCT-116 colon was 0.211 µM; in the assay with HS 578T breast it was 0.28 µM; in the assay with SF-295 CNS, 1.99 µM; in the assay with K-562 leukemia, 0.423 µM; with DU-145 prostate it was 2.03 µM; in the assay with SF-268 CNS it was 1.23 µM. Besides, the GI50 in the assay on OVCAR-8 ovarian is 2.18 µM; in the assay on OVCAR-3 ovarian, 1.59 µM; in the assay with SNB-19 CNS, 2.25 µM; in the assay on HOP-92 NSCLC, 0.288 µM. The TGI came out at 6.87 µM with HCT-116 colon; 2.34 µM with HS 578T breast; 10.3 µM in the assay on SF-295 CNS; 11.6 µM with K-562 leukemia; 11.5 µM in the assay on DU-145 prostate; 12.3 µM with SF-268 CNS. The TGI in the assay on OVCAR-8 ovarian worked out at 30.1 µM; in the assay on OVCAR-3 ovarian, 16.5 µM; in the assay on SNB-19 CNS, 23.4 µM; in the assay with HOP-92 NSCLC, 4.8 µM.
